We go through 4 substances from PMC10956426, “Lipid-Binding Regions within PKC-Related Serine/Threonine Protein Kinase N1 (PKN1) Required for Its Regulation” (Biochemistry, 2024).

The target in the test is T1, PKN1-(C2), PKN1-(C2)-(342–605) (Rattus norvegicus, UniProt Q63433).
T1 construct: predominantly trimer
The test is described as follows: intrinsic tryptophan fluorescence quenching, Scatchard. Format: binding. As to conditions: 3 lipids per trimer, 20 mM phosphate pH 7.4, 25 mM NaCl, 25 °C, sonicated vesicles. The text has this: intrinsic tryptophan fluorescence quenching, Scatchard on PKN1-(C2), PKN1-(C2)-(342–605)

Where [1] appears, read: type I (high-affinity) site of a biphasic curve.

T1 sequence (Q63433 342-605): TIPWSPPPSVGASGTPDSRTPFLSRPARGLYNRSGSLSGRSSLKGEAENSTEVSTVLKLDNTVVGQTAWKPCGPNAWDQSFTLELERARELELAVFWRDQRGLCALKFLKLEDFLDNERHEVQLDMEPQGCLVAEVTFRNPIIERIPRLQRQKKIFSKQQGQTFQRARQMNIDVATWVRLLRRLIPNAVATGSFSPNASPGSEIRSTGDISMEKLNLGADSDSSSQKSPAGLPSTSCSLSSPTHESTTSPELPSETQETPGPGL

Usually Kd stands for the free concentration of one partner at which half of the binding sites on the other are occupied at equilibrium, for simple one-to-one binding. Low values mean higher affinity, high ones lower affinity. With phosphatidylcholine, the Kd (one class of sites) is 100 nM. The same measure, in the same setting: with phosphatidylserine the figure was 200 nM.

In turn, phosphatidic acid registered a Kd under setting [1] of 300 nM.

Under setting [1], cardiolipin gave a Kd of 1000 ± 600 nM.
